Here are results for two compounds from ChEMBL document CHEMBL5120857, “Rational design, synthesis and biological evaluation of dual PARP-1/2 and TNKS1/2 inhibitors for cancer therapy” (Eur J Med Chem, 2022).

By IC50 is commonly meant the midpoint of a concentration-inhibition curve. Broadly, the TGI is the reduction of tumour growth relative to the control group. For orientation: CC50 means the concentration at which the toxic effect on the cells reaches its halfway point.

Active and inactive are the calls of the source. No cut-off for these calls is given here.

Series [1] relates to HCT-116. Briefly: Induction of cell cycle arrest in human HCT-116 cells assessed as S phase cells at 5 uM incubated for 3 days by propidium iodide staining based flow cytometry (reference value: 11.26 %). Type of series: functional. As to conditions: time 3 day. On the technique in general: A flow cytometer gives signals particle by particle.
In a further series the test system is MDA-MB-468. Briefly: Antiproliferative activity against human MDA-MB-468 cells assessed as inhibition of cell growth incubated for 7 days by MTT assay. Type of series: functional, cell-based. As to conditions: MDA-MB-468, 168 h. On the technique in general: Formazan colour is commonly taken as a measure of viable cells.
For a further series, the system named is MDA-MB-231. Briefly: Antiproliferative activity against human MDA-MB-231 cells assessed as inhibition of cell growth incubated for 7 days by MTT assay. It is filed as functional, cell-based. As to conditions: MDA-MB-231, 168 h.
For series [2], the system named is HCT-116. Briefly: Antitumor activity against human HCT-116 cells xenografted in BALB/c nude mouse assessed as tumor growth inhibition at 50 mg/kg, ip administered once daily for 28 days. Type of series: functional. The note with it: time 28 day. A general note: Xenograft models place foreign cells or tissue in a host animal.
Series [3] has as its system HCT-116. The series can be described thus: Inhibition of PARP in human HCT-116 cells assessed as decrease in pADPr levels at 10 uM by Western blot analysis. Type of series: cell-based.
Series [4] can be described thus: Cytotoxicity against mouse AML12 cells assessed as reduction in cell viability incubated for 7 days by MTT assay. Type of series: toxicity, cell-based. The note with it: time 7 day.
Series [5] concerns HCT-116. The series can be described thus: Induction of cell cycle arrest in human HCT-116 cells assessed as G2/M phase cells at 5 uM incubated for 3 days by propidium iodide staining based flow cytometry (reference value: 68.35 %). As to conditions: time 3 day. Type of series: functional.
Series [6] relates to HCT-116. The series can be described thus: Induction of apoptosis in human HCT-116 cells assessed as late apoptotic cells at 5 uM incubated for 3 days by annexinV-FITC/propidium iodide staining based flow cytometry (reference value: 8.71 %). Type of series: functional. As to conditions: time 3 day.
Series [7] relates to HCT-116. Briefly: Induction of apoptosis in human HCT-116 cells assessed as early apoptotic cells at 5 uM incubated for 3 days by annexinV-FITC/propidium iodide staining based flow cytometry (reference value: 7.67 %). The note with it: time 3 day. It is filed as functional.
Series [8] has as its system HCT-116. Briefly: Antiproliferative activity against human HCT-116 cells assessed as inhibition of cell growth incubated for 7 days by MTT assay. It is filed as functional, cell-based. The note with it: HCT-116, 168 h.
For series [9], the system named is HCT-116. Briefly: Induction of cell cycle arrest in human HCT-116 cells assessed as G0/G1 phase cells at 5 uM incubated for 3 days by propidium iodide staining based flow cytometry (reference value: 68.35 %). It is filed as functional. The note with it: time 3 day.
The subject of series [10] is HCT-116. The series can be described thus: Induction of apoptosis in human HCT-116 cells assessed as viable cells at 5 uM incubated for 3 days by annexinV-FITC/propidium iodide staining based flow cytometry (reference value: 60.0 %). It is filed as functional. As to conditions: time 3 day.
Series [11] relates to HCT-116. Briefly: Induction of apoptosis in human HCT-116 cells assessed as necrotic cells at 5 uM incubated for 3 days by annexinV-FITC/propidium iodide staining based flow cytometry (reference value: 3.65 %). Type of series: functional. As to conditions: time 3 day.
Series [12] relates to HCT-116. The series can be described thus: Inhibition of Wnt/beta-Catenin signaling in human HCT-116 cells assessed as decrease in cyclin D1 levels at 10 uM by Western blot analysis. Type of series: cell-based.
The subject of series [13] is HCT-116. Briefly: Inhibition of Wnt/beta-Catenin signaling in human HCT-116 cells assessed as increase in axin2 levels at 10 uM by Western blot analysis. Type of series: cell-based.

Turning to `O=C(c1cc(Cc2n[nH]c(=O)c3ccccc23)ccc1F)N1CCN(C(=O)C2CC2)CC1` [OLAPARIB], the Activity with HCT-116 [1] is 7.31%; in the series with HCT-116 [5] it was 34.23%; in the series on HCT-116 [6] it was 14.3%; in the series on HCT-116 [7], 12.9%; in the series on HCT-116 [9], 58.46%; in the series on HCT-116 [10] it was 68.8%. In addition, the Activity with HCT-116 [11] is reported as 4.03%. Also, the values for the IC50 with MDA-MB-468, with MDA-MB-231 and in the series on HCT-116 [8] were 2.52 µM, 5.35 µM and 5.56 µM, respectively. For the same compound, the TGI with HCT-116 [2] was determined as 15.36%. For the same compound, in the series with HCT-116 [3], the inhibition result was “Active”. The CC50 at 168 h in series [4] came out at 31.1 µM.

`O=c1[nH]nc2c3c(cccc13)N=C(CN1Cc3ccccc3C1)N2` [2X-121]: the Activity in the series with HCT-116 [1] is reported as 11.73%; in the series with HCT-116 [5] it was 23.49%; in the series on HCT-116 [6], 12.6%; with HCT-116 [7], 6.11%; in the series with HCT-116 [9] it was 64.78%; with HCT-116 [11], 6.45%. Besides, the IC50 amounted to 4.17 µM with MDA-MB-468, 2.89 µM in the series on MDA-MB-231 and 6.71 µM in the series on HCT-116 [8]. The inhibition in vivo at 50 mg/kg with HCT-116 [2] (Mus musculus, HCT-116, 672 h, read-out: TGI) worked out at 20.2%. The inhibition result in the series with HCT-116 [3], in the series on HCT-116 [12] and in the series with HCT-116 [13] was “Active” in each case. For the same compound, the CC50 at 168 h in series [4] worked out at 1.39 µM. In addition, in the series on HCT-116 [10] (Homo sapiens, HCT-116, 72 h, read-out: Activity), the viability at 5 µM was 74.8%.
